Experiments:
MiaPaCa-2 cells [1] = test: Intracellular oxidants: HPLC of hydroethidine (HE) oxidation products; assay type: cell-based, human
Procedure: Hydroethidine (HE) or dihydroethidium was used as a fluorogenic probe to assess the cellular generation of superoxide and other peroxidatic oxidants[36],[37]. Cells were treated for 24 h with Mito-PEG5-ATO alone or in combination with AZD-3965 or CPI-613, followed by 1 h incubation with HE (10 µM). Cells were harvested and the cell pellet stored at − 80 °C until the day of high-performance liquid chromatography (HPLC) analysis. Sample preparation and HPLC analysis were performed as previously reported[32],[36]. 2-OH-E^+ was used as a specific marker for superoxide, and E^+-E^+ was used as a specific marker for intracellular one-electron oxidants[36],[37].
HE was purchased from Invitrogen (Carlsbad, CA). Stock solutions (20 mM and 5 mM, respectively) were prepared in deoxygenated DMSO (dimethyl sulfoxide) and stored at − 80 °C until use. Ethidium cation (bromide salt) was purchased from Sigma-Aldrich. The hydroxylated oxidation products from HE (2-OH-E^+) were prepared by reacting the probes with Fremy’s salt as previously described in detail[70],[71]. The dimeric products were prepared by reacting the probes with excess potassium ferricyanide, as detailed elsewhere. Synthesized standards of all oxidation products of HE were purified by HPLC. HPLC-based measurements of HE and its oxidation products were performed using an Agilent 1100 system equipped with absorption and fluorescence detectors and refrigerated autosampler (4 °C). The samples (50 µL) were injected into a reverse phase column (Phenomenex, Kinetex C18, 100 mm × 4.6 mm, 2.6 µm) equilibrated with 20% acetonitrile and 80% water containing 0.1% trifluoroacetic acid. The compounds were eluted by increasing the content of acetonitrile from 20 to 56% over 4.5 min at a flow rate of 1.5 mL/min. The absorption detector was used to measure 3,8-diamino-6-phenylphenanthridine (at 290 nm; retention time: 2.5 min), HE-E^+ (at 290 nm; retention time: 4.1 min), E^+-E^+ (at 290 nm; retention time: 4.3 min), and HE (at 370 nm; retention time: 1.6 min). A fluorescence detector (initial excitation at 358 nm and emission at 440 nm) was used to monitor HE (when present at low concentrations). At 2.3 min after injection, the fluorescence parameters were changed (excitation at 490 nm and emission at 567 nm) for sensitive detection of 2-OH-E^+ (retention time: 3.2 min) and E^+ (retention time: 3.3 min).

MiaPaCa-2 cells [2] = test: Cell death by SYTOX Green staining, IncuCyte; details: Mito-PEG5-ATO 0.04 µM, AZD-3965 200 µM, 72 h
U87MG cells = test: Cell proliferation (cell confluence), IncuCyte Live-Cell Analysis System; assay type: cell-based, human; details: Mito-PEG5-ATO 0.15 µM, AZD-3965 600 µM
Procedure: The following cell lines were obtained from the American Type Culture Collection (Manassas, VA), where they were regularly authenticated: MiaPaCa-2 (ATCC Cat# CRL-1420, human pancreatic cancer cells), U87MG (ATCC Cat# HTB-14, human brain cancer cells), A549 (ATCC Cat# CCL-185, lung cancer cells), and HCT-116 (ATCC Cat# CCL-247, colon cancer cells). All cell lines were grown at 37 °C in 5% carbon dioxide. MiaPaCa-2 cells were maintained in Dulbecco's Modified Eagle Medium (Thermo Fisher Scientific, Waltham, MA; Cat# 11965) supplemented with 10% fetal bovine serum. U87MG, A549, and HCT-116 cells were maintained in RPMI 1640 medium (Thermo Fisher Scientific, Cat# 11875), supplemented with 10% fetal bovine serum. All cells were stored in liquid nitrogen and used within 20 passages after thawing.
The IncuCyte Live-Cell Analysis System was used to monitor cell proliferation[3],[33],[67]. As shown in previous publications[3],[67], this imaging system is probe-free and noninvasive, and enables continuous monitoring of cell confluence over several days. […] Cells were then treated with Mito-PEG-ATO analogs, and the cell confluency was recorded over several days in the IncuCyte Live-Cell Analysis System.
Figure S4. […] (a) Effects of Mito-PEG-ATO analogs on the proliferation of U87MG cells were monitored in the IncuCyte Live-Cell Analysis System. […]

[3] = molecular target: mitochondrial complex I (MiaPaCa-2 cells) (Homo sapiens, UniProt O75251+O75306+P03886); test: Complex I-dependent oxygen consumption in permeabilized cells, Seahorse XF-96; assay type: cell-based; details: 24 h, with Mito-PEG5-ATO
mitochondrial complex I (MiaPaCa-2 cells), sequence (O75306 34-463): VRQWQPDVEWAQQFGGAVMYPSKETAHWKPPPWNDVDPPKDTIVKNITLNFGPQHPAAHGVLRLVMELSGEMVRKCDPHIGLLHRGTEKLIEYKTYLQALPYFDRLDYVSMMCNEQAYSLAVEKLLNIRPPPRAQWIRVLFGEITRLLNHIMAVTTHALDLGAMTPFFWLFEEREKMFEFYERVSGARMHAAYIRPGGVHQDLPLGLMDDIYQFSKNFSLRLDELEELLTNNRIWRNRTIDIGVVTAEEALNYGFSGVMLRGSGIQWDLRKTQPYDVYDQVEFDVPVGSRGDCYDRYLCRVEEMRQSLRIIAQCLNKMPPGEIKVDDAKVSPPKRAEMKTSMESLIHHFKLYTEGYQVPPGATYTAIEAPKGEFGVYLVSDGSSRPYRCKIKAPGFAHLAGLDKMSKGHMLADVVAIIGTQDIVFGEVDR
mitochondrial complex I (MiaPaCa-2 cells), sequence (O75251 39-213): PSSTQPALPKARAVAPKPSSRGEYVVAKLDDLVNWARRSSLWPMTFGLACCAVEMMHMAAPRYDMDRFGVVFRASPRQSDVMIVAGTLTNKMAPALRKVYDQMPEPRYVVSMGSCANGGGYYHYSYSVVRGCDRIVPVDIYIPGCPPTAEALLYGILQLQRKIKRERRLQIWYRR
mitochondrial complex I (MiaPaCa-2 cells), sequence (P03886 whole entry): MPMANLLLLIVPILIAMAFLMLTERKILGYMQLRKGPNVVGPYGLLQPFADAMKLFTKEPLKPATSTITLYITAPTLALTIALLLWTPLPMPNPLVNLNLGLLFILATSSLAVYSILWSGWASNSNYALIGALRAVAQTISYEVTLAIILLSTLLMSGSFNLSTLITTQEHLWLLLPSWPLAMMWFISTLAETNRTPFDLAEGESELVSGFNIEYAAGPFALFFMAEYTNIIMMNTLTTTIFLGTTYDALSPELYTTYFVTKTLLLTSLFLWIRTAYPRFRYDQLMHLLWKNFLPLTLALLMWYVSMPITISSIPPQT
Procedure: Mitochondrial oxygen consumption was measured using the Seahorse XF-96 Extracellular Flux Analyzer (Agilent, North Billerica, MA)[3],[33],[67],[68]. To determine the intact cell mitochondrial function of MiaPaCa-2 cells in response to Mito-PEG-ATO analogs, we used the bioenergetic function assay previously described[2],[3]. […] From these measurements, indices of mitochondrial function were determined as previously described[2],[3]. For mitochondrial complex activities assays, after cells were treated with Mito-PEG-ATO analogs for 24 h, the OCR-based assessment of mitochondrial complex activities was carried out on acutely permeabilized cells in the presence of different mitochondrial substrates, i.e., pyruvate/malate for complex I and duroquinol for complex III[3],[32],[34],[69]. Rotenone, malonate, and antimycin A (Sigma-Aldrich, St. Louis, MO) were used as specific inhibitors of mitochondrial complexes I, II, and III, respectively. Briefly, cells that were intact after treatments were immediately permeabilized using the Seahorse XF Plasma Membrane Permeabilizer (Agilent). The mitochondrial complex I-induced OCR was assayed in mannitol and sucrose buffer[69] containing 10 mM pyruvate and 1.5 mM malate (substrates for complex I) and 10 mM malonate (which inhibits complex II activities). […] The IC50 values were determined as previously reported.

Compound | HE oxidation products 2-OH-E+, E+ and E+-E+ (MiaPaCa-2 cells [1]; 24 h treatment, then HE 10 µM 1 h) | Cell death / cell toxicity (SYTOX Green counts) (MiaPaCa-2 cells [2]) | Inhibition of cell proliferation in combination with Mito-PEG5-ATO (U87MG cells) | Intracellular oxidant-induced HE-derived products, in combination with Mito-PEG5-ATO (MiaPaCa-2 cells [1]; 24 h, with Mito-PEG5-ATO 0.05 µM, AZD-3965 200 µM or CPI-613 200 µM) | Effect on the decrease in complex I-induced oxygen consumption induced by Mito-PEG5-ATO [3]
O=C1C(OCCOCCOCCOCCOCC[P+](c2ccccc2)(c2ccccc2)c2ccccc2)=C([C@H]2CC[C@H](c3ccc(Cl)cc3)CC2)C(=O)c2ccccc21.[Br-] [Mito-PEG5-ATO, [14-((3-(trans-4-(4-chlorophenyl)cyclohexyl)-1,4-dioxo-1,4-dihydronaphthalen-2-yl)oxy)-3,6,9,12-tetraoxatetradecyl]triphenylphosphonium bromide] | slight but significant increase | similarly low SYTOX Green counts |  |  | 
Cc1[nH]nc(C(F)(F)F)c1Cc1sc2c(c1C(=O)N1C[C@](C)(O)CO1)c(=O)n(C)c(=O)n2C(C)C [AZD-3965] |  |  | Synergistic inhibition | modest and additive increase | Neither AZD-3965 nor V-9302 significantly affected

Source: publication PMC8948292, “Combining PEGylated mito-atovaquone with MCT and Krebs cycle redox inhibitors as a potential strategy to abrogate tumor cell proliferation” (Scientific Reports, 2022)
